# Assay results published in patent US20040006094A1, “4-pyrimidinamine derivatives, pharmaceutical compositions and related methods” (priority 2000, published 2004).
# Tests used:
# [1] = tested on: differentiated P19 neurons; experiment: Differentiated P19 excitotoxicity assay: neuroprotection by known kinase inhibitors against glutamate/glycine (Alamar Blue, CFDA); assay type: cell-based, murine; conditions: for IC50: read-out: IC50 for Neuroprotection [lower-upper 95% C.I.]
# Protocol: Data points are the average±standard error of three separate experiments.
# These cells were used to measure the effects of various known kinase inhibitors (Compound Identification (ID) column in Table I) upon cytotoxicity-induced by NMDA. First, P19 cells were differentiated as described in Example 2. Then cells were exposed to 3 mM of glutamate in the presence of 1 mM glycine.
# Cell viability was determined. Compounds that prevented excitotoxicity were determined by measuring the percentage of viable cells compared to differentiated P19 cells that were not presented with a toxic insult (Table I).
# Cell viability was measured using two methods. The first method was a confocal, single-cell fluorescence imaging-based method using the live cell dye carboxy-fluorescein diacetate (CFDA). CFDA labels the cell bodies and processes of living cells. […] CFDA fluorescence was measured using a modified Attofluor Imager device (Atto Instruments, Rockville Pike, Md.). Cells were labeled with 1 uM CFDA for 15 min in media, then placed onto the stage of the Attofluor microscope. The dye was excited by light from a mercury lamp source passed through a 488 nm bandpass filter of 10 nm band width, passed through a CARV real-time confocal spinning disk module (Atto Instruments, Rockville, Md.), and then passed through a 40×oil immersion objective (Zeiss Fluar, NA=1.3). Emitted light was transmitted through a 495 nm dichroic mirror, collected to an Attofluor intensified CCD camera, and images were visualized using Attofluor Ratio Vision software (Atto Instruments, Rockville, Md.).
# The second method for measuring cell viability was a plate reader method. Cells plated into black 96 well plates (Packard viewplates) were loaded with 5% Alamar Blue dye (Biosource International). Alamar Blue is a dye that takes advantage of mitochondrial reductases to convert non-fluorescent resazurin to fluorescent resorufin (excitation 535 nm, emission 580 nm). Baseline fluorescence counts were read at room temperature in a Wallac plate reader immediately after addition of Alamar blue. Fluorescence counts of cell viability were taken the same way after 1 hour incubation at 37° C. Fluorescence was expressed as a percent of control, untreated cells after subtraction of background fluorescence. Live/dead cells were confirmed visually with a light microscope.
# Kinase inhibition activities and potencies were derived from the literature (Chijiwa et al. 1990; Favata et al. 1998; Henry et al. 1998; Inhorn and Majerus 1987; Kobayashi et al. 1989; Lee et al. 1994; Onoda et al. 1989; Tokumitsu et al. 1990). […] Curves were fit, and confidence intervals were determined using GraphPad Prism software.
# [2] = tested on: NMDA receptor-mediated intracellular calcium response; experiment: Fura-2 imaging of glutamate/glycine-induced intracellular calcium response in P19 neurons; assay type: cell-based, murine; conditions: 100 μM MK-801, 24 hours prior to assay; 3 mM glutamate, 1 mM glycine
# Protocol: MK-801 was administered 24 hours prior to assay. […] MK-801 concentrations are expressed as 10^−x Molar. […] (FIG. 1B).
# U0126 was administered concurrently with glutamate and glycine.
# Male Wistar rats = experiment: Transient model of cerebral ischemia in rats (lesion volume); assay type: in vivo, rat; conditions: 3 mg/kg, i.p., 1 hr post ischemia onset; 24 h; average of 12
# Protocol: Male Wistar rats (Iffa Crédo, France), weighing 250-300 g, were housed 2 per cage under a light-dark cycle of 12 hr-12 hr (light on at 7:00 a.m., off at 7:00 p.m.) at a room temperature of 21±2° C., with 50±15% humidity, for a minimum of 5 days before the experiments. During this time, the rats had free access to commercial rat chow (Trouw Nutrition France, Vigny, France, ref. 811002) and tap water.
# The animals were anaesthetized with 5% halothane in air for induction, then 1-2% halothane during surgery. The rat's body temperature was maintained at 37° C. with a heating pad. A 2 cm incision was made at the center of the neck and the right common carotid artery (CCA), external carotid artery (ECA) and internal carotid artery (ICA) were exposed under an operating microscope. The ICA was further dissected to identify the pterygopalatine artery (PA) branch and the intracranial ICA branch. The CCA was ligated. A 3-0 silk suture was tied at the origin of the ECA and ligated. A catheter (id=0.58 mm) was introduced into the CCA through a small puncture and advanced to the intracranial branch of the ICA. A 4-0 surgical nylon suture was introduced into the catheter. A length of approximately 19 mm of nylon suture was gently advanced from the CCA into the lumen of the ICA until the suture blocked the origin of the MCA. The suture was sealed into the catheter by heat, leaving 1 cm of catheter protruding so the suture could be withdrawn to allow reperfusion. The incision was closed using skin clips. Anaesthesia was then terminated and the animals were placed under heat lamps until recovery from anaesthesia. The rats awakened 10-15 min later. After 2 hr of ischemia, reperfusion was performed by withdrawal of the suture until the tip cleared the ICA lumen. Vehicle or test compound was administered intraperitoneally (i.p.) or intravenously (i.v.) at 1 hr post ischemia onset.
# 24 h after the onset of occlusion, the rats were killed by decapitation. The brains were immediately removed, frozen in isopentane and stored at −20° C. The brains were then cut in 20 μm thick sections in a cryocut. Every 20th slice was used to measure infarct area. The sections were stained with cresyl violet and the areas of infarct in the striatum and cortex were determined by planimetry using an image analysis software (Image, NIH) after digitalization of the section images.
# Following the procedure described above, MK-801, compound #46 and compound #264 (as listed in the Tables herein) were evaluated for neuroprotective effects in rats with results as listed in Table VIII. The data represent average lesion volume in mm^3 for 12 measurements. Vehicle used was 15% solutol in 5% dextrose.
# NMDA receptor = NMDA receptor (Mus musculus, UniProt P35436+P35438+Q01097); conditions: P19 membranes, concentration-dependent
# Sequence of NMDA receptor (P35436 23-1464, other chains not shown): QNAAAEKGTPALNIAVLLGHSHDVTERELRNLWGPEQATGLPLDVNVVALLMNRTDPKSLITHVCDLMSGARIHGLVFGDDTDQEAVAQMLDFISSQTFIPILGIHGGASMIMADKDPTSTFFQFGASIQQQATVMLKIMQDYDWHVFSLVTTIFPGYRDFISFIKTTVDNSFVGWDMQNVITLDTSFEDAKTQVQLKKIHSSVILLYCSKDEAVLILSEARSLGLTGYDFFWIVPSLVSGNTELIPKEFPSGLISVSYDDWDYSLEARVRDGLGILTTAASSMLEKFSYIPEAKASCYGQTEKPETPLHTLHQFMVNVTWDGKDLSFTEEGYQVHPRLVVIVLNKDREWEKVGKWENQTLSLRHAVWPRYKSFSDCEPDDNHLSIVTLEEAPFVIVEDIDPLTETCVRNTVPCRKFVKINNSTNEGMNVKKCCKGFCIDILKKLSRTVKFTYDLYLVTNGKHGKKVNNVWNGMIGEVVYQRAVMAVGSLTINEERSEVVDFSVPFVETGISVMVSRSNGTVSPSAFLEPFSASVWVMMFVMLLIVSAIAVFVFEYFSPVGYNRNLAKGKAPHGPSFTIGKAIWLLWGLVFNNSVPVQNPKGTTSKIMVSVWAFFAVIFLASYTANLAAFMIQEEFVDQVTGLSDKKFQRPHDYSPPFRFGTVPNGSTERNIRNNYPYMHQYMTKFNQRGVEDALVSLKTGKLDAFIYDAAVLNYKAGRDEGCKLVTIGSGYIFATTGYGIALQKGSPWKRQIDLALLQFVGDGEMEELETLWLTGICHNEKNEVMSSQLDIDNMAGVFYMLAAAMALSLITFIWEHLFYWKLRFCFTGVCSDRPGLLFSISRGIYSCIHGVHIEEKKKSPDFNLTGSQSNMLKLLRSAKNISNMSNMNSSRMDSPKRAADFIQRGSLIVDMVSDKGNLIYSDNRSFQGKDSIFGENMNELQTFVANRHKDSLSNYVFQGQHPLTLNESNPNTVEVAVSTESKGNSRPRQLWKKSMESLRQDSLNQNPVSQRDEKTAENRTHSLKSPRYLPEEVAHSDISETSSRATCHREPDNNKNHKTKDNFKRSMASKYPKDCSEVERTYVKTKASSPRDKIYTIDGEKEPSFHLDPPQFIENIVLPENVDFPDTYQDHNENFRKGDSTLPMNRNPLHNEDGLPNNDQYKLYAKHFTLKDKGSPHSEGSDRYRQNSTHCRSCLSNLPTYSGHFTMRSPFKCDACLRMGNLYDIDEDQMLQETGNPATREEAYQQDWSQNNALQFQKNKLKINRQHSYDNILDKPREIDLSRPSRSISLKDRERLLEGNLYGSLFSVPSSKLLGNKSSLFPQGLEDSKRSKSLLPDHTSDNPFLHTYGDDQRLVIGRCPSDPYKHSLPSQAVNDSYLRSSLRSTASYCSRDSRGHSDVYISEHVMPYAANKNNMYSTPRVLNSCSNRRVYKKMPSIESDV
# Sequence of NMDA receptor (Q01097 27-1482, other chains not shown): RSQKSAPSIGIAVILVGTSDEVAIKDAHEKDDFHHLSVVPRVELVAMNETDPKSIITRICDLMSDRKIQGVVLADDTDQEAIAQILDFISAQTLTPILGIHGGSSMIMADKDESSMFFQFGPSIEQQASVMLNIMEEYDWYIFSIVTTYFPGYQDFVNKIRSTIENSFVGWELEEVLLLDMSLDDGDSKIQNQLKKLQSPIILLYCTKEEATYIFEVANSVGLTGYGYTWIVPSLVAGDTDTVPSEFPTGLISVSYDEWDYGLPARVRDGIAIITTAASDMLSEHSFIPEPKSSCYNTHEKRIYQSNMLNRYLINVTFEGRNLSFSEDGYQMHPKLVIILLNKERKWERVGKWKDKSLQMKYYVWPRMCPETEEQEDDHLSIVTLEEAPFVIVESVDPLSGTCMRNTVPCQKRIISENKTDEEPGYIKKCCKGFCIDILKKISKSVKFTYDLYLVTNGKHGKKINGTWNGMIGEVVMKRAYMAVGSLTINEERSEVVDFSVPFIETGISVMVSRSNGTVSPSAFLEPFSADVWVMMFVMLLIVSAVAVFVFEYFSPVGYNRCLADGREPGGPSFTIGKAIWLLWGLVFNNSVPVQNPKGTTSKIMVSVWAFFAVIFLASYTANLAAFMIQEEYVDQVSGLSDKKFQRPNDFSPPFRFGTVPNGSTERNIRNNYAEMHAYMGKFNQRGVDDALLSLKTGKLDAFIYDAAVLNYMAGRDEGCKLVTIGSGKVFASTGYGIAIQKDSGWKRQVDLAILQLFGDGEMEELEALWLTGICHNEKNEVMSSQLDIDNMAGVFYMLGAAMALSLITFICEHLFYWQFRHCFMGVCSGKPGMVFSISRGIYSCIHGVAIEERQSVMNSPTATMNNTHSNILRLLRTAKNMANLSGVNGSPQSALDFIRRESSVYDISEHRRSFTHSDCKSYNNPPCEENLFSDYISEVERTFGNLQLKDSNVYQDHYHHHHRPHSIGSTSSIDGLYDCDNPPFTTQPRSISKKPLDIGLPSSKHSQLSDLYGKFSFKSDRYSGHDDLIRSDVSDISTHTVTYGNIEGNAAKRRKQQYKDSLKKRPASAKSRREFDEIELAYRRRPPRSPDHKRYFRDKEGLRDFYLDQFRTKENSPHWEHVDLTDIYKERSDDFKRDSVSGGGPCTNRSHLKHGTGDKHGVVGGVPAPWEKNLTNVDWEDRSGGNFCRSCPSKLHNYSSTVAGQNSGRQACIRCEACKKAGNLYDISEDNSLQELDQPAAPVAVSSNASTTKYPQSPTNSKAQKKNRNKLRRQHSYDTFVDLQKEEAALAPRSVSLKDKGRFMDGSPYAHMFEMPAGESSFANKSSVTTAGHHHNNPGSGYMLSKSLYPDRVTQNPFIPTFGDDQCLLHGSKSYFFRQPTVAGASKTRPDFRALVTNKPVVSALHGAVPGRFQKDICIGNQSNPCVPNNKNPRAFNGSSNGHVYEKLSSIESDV
# Protocol: MK-801 inhibition of [^3H]-MK-801 binding was assayed in P19 membranes. MK-801 concentrations are expressed as 10^−x Molar. Data points represent the mean±standard error from eight experiments. % control=((CPM−CPMbottom)/(CPMtop−CPMbottom))×100.
# CAMKII = conditions: read-out: Potency, Ki, CAMKII; cited from earlier work
# PKC = conditions: read-out: Potency, IC50, PKC; cited from earlier work
# PKA = PKA (Homo sapiens, UniProt P17612); conditions: read-out: Potency, IC50, PKA; cited from earlier work
# PKG = molecular target: T1, PKG (Homo sapiens, UniProt Q13976); conditions: read-out: Potency, IC50, PKG; cited from earlier work
# T1 sequence (Q13976 1-671): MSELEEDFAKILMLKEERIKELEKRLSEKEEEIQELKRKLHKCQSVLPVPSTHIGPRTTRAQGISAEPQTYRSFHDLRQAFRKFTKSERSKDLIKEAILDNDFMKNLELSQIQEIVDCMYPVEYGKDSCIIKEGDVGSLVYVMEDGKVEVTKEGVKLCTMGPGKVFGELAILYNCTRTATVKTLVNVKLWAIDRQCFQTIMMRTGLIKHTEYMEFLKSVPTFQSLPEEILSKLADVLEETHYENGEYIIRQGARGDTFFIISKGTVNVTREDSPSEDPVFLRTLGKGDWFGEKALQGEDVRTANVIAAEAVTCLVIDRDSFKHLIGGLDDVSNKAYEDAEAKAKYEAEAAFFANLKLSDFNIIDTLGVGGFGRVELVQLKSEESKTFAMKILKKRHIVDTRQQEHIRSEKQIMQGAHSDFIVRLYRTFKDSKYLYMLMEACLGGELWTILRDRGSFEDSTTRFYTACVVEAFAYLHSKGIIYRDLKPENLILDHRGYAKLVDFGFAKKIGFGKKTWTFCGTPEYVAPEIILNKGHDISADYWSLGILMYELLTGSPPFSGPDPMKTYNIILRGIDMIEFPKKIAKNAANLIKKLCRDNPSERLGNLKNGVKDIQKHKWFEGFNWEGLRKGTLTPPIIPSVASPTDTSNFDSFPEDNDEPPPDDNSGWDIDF
# p60^c-src = p60^c-src (Homo sapiens, UniProt P12931); conditions: read-out: Potency, IC50, p60^c-src; cited from earlier work
# Sequence of p60^c-src (P12931 whole entry): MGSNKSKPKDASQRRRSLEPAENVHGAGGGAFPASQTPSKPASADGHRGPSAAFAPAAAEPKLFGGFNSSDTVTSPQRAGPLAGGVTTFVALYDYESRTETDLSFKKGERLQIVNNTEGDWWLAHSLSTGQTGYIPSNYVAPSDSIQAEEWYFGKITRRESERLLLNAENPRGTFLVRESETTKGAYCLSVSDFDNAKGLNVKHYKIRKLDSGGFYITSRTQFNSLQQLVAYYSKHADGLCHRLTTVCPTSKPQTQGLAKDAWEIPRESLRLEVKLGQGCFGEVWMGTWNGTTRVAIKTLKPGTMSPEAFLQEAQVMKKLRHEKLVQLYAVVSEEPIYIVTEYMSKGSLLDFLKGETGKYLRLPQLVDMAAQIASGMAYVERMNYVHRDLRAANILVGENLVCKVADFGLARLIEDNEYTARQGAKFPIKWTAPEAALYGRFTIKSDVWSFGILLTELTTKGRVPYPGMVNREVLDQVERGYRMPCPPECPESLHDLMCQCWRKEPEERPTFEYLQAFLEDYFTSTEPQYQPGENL
# EGF receptor = EGF receptor (Homo sapiens, UniProt P00533); conditions: read-out: Potency, IC50, EGF receptor; cited from earlier work
# Sequence of EGF receptor (P00533 25-1210): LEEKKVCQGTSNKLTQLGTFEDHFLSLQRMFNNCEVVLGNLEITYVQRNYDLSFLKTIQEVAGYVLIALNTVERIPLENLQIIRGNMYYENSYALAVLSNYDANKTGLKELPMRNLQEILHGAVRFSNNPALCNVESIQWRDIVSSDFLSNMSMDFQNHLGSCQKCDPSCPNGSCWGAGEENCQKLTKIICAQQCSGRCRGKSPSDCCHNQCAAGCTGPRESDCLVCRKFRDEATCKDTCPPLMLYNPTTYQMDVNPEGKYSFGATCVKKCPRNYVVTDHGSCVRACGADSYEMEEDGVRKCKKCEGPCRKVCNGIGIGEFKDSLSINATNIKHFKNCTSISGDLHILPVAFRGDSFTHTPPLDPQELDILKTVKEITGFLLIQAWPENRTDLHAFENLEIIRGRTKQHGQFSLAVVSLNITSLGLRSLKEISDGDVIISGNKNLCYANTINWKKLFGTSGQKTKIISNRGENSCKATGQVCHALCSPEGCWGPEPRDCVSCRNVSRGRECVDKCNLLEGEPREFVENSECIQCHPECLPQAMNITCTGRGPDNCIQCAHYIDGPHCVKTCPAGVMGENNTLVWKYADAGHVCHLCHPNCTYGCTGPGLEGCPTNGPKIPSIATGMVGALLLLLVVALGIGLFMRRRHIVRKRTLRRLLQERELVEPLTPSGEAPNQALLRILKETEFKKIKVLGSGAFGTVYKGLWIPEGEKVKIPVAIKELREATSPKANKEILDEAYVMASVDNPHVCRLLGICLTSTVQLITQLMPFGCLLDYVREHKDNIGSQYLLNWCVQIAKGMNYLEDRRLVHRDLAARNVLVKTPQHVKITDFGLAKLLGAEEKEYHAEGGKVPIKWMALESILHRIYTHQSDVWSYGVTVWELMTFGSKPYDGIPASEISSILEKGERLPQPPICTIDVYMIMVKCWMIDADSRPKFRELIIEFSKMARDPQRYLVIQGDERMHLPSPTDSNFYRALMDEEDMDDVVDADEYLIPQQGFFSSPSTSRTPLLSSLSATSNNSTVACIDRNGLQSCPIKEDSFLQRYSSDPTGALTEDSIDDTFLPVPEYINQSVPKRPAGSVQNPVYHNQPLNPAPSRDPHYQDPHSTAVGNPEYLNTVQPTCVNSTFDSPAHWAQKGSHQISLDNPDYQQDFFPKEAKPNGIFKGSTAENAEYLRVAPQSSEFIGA
# P19 neurons = experiment: Post-treatment time course of neuroprotection in P19 neurons (delayed neuroprotection); assay type: cell-based, murine; conditions: compound added after glutamate challenge
# From the text: Time-course of efficacy is an extremely relevant parameter for a potential neuroprotective therapeutic agent, since the therapeutic would need to be administered hours to days after an ischemic event and still retain efficacy.
# [3] = 3 mM glutamate, 1 mM glycine, mean of three separate curves
smiles,measurement,setting,value
"C[C@]12N[C@H](Cc3ccccc31)c1ccccc12 [MK-801, reference compound]",Maximal protection against glutamate toxicity,[1]; 3 mM glutamate and 1 mM glycine,close to control levels
same,effect on intracellular calcium response to NMDA receptor agonists,[2],significantly inhibited this response
same,Cortex + Striatum Vol. (mm^3),Male Wistar rats,205.4 ± 28.0 mm^3
same,Cortex Vol. (mm^3),Male Wistar rats,135.0 ± 26.1 mm^3
same,Striatum Vol. (mm^3),Male Wistar rats,70.4 ± 2.9 mm^3
same,inhibition of [3H]-MK-801 binding achieved,NMDA receptor,100%
CN([C@@H](Cc1ccc(OS(=O)(=O)c2cccc3cnccc23)cc1)C(=O)N1CCN(c2ccccc2)CC1)S(=O)(=O)c1cccc2cnccc12 [KN62],Maximal Efficacy for Neuroprotection,"[1]; 3 mM glutamate, 1 mM glycine",<10%
same,IC50 for Neuroprotection [lower-upper 95% C.I.],[1]; [3],Ineffective
same,Ki,CAMKII,~900 nM
COc1c(C[C@@H](C)OC(=O)Oc2ccc(O)cc2)c2c3c(C[C@@H](C)OC(=O)c4ccccc4)c(OC)c(=O)c4c(O)cc(OC)c(c5c(OC)cc(O)c(c1=O)c52)c43 [Calphostin C],Maximal Efficacy for Neuroprotection,"[1]; 3 mM glutamate, 1 mM glycine",˜50%
same,IC50,[1]; [3],> 1000 nM
same,IC50,PKC,~50 nM
same,IC50,PKA,> 50000 nM
same,IC50,PKG,> 25000 nM
same,IC50,p60^c-src,> 50000 nM
O=S(=O)(NCCNC/C=C/c1ccc(Br)cc1)c1cccc2cnccc12 [H-89],Maximal Efficacy for Neuroprotection,"[1]; 3 mM glutamate, 1 mM glycine",<25%
same,IC50,[1]; [3],> 10000 nM
same,Ki,CAMKII,~30000 nM
O=C(O)c1cc(N(Cc2ccccc2O)Cc2cc(O)ccc2O)ccc1O [Lavendustin A],Maximal Efficacy for Neuroprotection,"[1]; 3 mM glutamate, 1 mM glycine",<25%
same,IC50,[1]; [3],> 10000 nM
same,IC50,p60^c-src,~500 nM
same,IC50,EGF receptor,~11 nM
COc1cc(N)nc2[nH]c(-c3ccc(F)cc3)c(-c3ccncc3)c12 [Compound A],time after glutamate challenge at which efficacy was lost,P19 neurons,15 min
